{"source": "paper PMC4467156", "about": "“A new chemical inhibitor of angiogenesis and tumorigenesis that targets the VEGF signaling pathway upstream of Ras” (Oncotarget, 2015)", "key": {"HUVEC cells [1]": {"tested_on": "HUVEC cells", "assay": "3H-thymidine incorporation, HUVEC", "type": "cell-based, human", "conditions": "HUVEC, 24 h", "method": "(§1) Cells were treated with molecules in complete medium. After 22 h, 1 μCi per well H^3 thymidine was added for 2 hours. Cells are then fixed by 10% trichloroacetic acid and harvested with 0.2N NaOH, 1% SDS. Radioactivity was measured in a beta counter."}, "LLC/2 cells": {"tested_on": "LLC/2 cells", "assay": "3H-thymidine incorporation, LLC/2", "type": "cell-based", "conditions": "LLC/2 lung carcinoma cells; less efficiently than on endothelial cells", "method": "as §1"}, "HMVECd cells": {"tested_on": "HMVECd cells", "assay": "Cell viability WST-1, HMVECd", "type": "cell-based, human", "conditions": "confluent HMVECd, 24 h at 37°C", "method": "(§2) Once they had reached confluency, cells were kept for 24 hours in medium supplemented with 0.5% FCS (LLC/2 and 3T3 cells) or 2.5% FCS (HUVEC and HMVEC-d cells), in the presence of COB223 at different concentrations. WST-1 assay (Roche Diagnostic, Meylan, France) was then performed according to the manufacturer's instructions."}, "HUVEC cells [2]": {"tested_on": "HUVEC cells", "assay": "Cell viability WST-1, HUVEC", "type": "cell-based, human", "conditions": "confluent HUVEC, 24 h at 37°C", "method": "as §2"}, "LLC/2 tumor": {"tested_on": "LLC/2 tumor", "assay": "Mouse LLC/2 tumor model", "type": "in vivo", "method": "We chose this model because of its rapid growth in syngenic mice and its strong dependence on angiogenesis. LLC/2 cells (10^6 in 50 μL medium) were subcutaneously injected into the right flank of […] mice. Seven days after tumor inoculation, mice were given an intraperitoneal (i.p.) injection of either solvent (1.7% DMSO) or COB223 every other day. Tumor size was measured with calipers, and the volume was calculated according to the formula (L*w^2)/2 where L and […] stand for length and width respectively. All mice were killed 21 days after tumor grafting.\nTumors collected after animal sacrifice were split into two parts and fixed either in 4% paraformaldehyde (v/v) or in formalin fixative for 24 h at 4°C and embedded in paraffin and then cut into 7 μm sections. Sections were stained using specific antibodies and the avidin–biotin immunoperoxidase detection method. Endogenous peroxidase activity was quenched by pretreatment with 3% (v/v) hydrogen peroxide in methanol for 20 min. For endothelial immunohistochemistry detection, CD31 antibody (MEC13.3, BD Pharmingen) was incubated for 2 h at room temperature. The tissue sections were subsequently washed three times with PBS and incubated with biotinylated rabbit anti-rat IgG (1:250 dilution in blocking solution; Sigma-Aldrich, Saint-Quentin Fallavier, France) for 1 h at room temperature. After three PBS washes, the slides were incubated with an avidin: biotin complex (Vectastain ABC kit; Vector Laboratories, Burlingame, CA) for 45 minutes. After a final PBS wash, the immunoreactive proteins were visualized after the addition of 3,3′-diaminobenzidine (Dako, Trappes, France) for 2 min and then counterstained with hematoxylin. Control sections were treated without primary antibody."}, "HUVEC cells [3]": {"tested_on": "HUVEC cells", "assay": "Binding of 125I-VEGF-A121 to HUVEC cells", "design": "species or system human", "conditions": "data not shown"}, "FGFR1": {"molecular_target": "FGFR1 (Homo sapiens, UniProt P11362)", "sequence (P11362 22-822, species assumed)": "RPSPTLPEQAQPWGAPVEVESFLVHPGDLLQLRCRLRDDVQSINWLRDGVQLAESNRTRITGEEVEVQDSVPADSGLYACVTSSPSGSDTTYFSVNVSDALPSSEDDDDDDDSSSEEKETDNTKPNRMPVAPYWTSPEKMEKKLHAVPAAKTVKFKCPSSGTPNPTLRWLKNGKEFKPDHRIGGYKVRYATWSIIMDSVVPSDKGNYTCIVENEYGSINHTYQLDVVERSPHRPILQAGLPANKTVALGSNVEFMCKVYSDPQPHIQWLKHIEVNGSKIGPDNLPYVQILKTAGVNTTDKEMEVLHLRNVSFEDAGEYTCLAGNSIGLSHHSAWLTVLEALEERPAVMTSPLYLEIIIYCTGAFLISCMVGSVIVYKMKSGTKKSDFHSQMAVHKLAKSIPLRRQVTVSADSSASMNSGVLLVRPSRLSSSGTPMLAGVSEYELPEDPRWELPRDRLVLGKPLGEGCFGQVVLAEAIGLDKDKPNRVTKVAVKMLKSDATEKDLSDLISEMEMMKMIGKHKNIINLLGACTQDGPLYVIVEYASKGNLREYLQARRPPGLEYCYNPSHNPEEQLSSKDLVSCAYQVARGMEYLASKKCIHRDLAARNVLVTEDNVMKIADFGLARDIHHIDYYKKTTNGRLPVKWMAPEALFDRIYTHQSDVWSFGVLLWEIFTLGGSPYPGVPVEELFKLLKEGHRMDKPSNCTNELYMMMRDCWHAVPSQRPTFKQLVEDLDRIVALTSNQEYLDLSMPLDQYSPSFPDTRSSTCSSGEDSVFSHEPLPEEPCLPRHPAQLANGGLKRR", "assay": "In vitro kinase assay FGFR1", "type": "biochemical", "conditions": "concentrations up to 50 μM", "method": "(§3) We first wondered whether COB223 required to be internalized to exert its biological effect. For this, we synthesized a covalent complex between BSA and COB223 and purified it. […] In vitro kinase assays were performed with a panel of purified protein-kinases involved in mitogenic signaling, including VEGFR2, FGFR1, FGFR2, PDGFRß, Met, Raf, MEK1, ERK1, ERK2, PKCα, PKCβI, PKCβII, PKCζ as indicated in Table 2. […] We then analyzed the effect of COB223 on VEGF-induced phosphorylations of VEGFR2, MEK and ERK1/2 (Figure 9). […] (Figure 9A, 9B). […] It was also specific of the p42/p44 MAP kinase pathway as activation of p38 MAP kinase phosphorylation in HUVEC cells by VEGF or serum was unaffected by COB223 (data not shown). The activation of src phosphorylation by VEGF in HUVECs was also unaffected by COB223 (data not shown)."}, "FGFR2": {"molecular_target": "FGFR2 (Homo sapiens, UniProt P21802)", "sequence (P21802 22-821, species assumed)": "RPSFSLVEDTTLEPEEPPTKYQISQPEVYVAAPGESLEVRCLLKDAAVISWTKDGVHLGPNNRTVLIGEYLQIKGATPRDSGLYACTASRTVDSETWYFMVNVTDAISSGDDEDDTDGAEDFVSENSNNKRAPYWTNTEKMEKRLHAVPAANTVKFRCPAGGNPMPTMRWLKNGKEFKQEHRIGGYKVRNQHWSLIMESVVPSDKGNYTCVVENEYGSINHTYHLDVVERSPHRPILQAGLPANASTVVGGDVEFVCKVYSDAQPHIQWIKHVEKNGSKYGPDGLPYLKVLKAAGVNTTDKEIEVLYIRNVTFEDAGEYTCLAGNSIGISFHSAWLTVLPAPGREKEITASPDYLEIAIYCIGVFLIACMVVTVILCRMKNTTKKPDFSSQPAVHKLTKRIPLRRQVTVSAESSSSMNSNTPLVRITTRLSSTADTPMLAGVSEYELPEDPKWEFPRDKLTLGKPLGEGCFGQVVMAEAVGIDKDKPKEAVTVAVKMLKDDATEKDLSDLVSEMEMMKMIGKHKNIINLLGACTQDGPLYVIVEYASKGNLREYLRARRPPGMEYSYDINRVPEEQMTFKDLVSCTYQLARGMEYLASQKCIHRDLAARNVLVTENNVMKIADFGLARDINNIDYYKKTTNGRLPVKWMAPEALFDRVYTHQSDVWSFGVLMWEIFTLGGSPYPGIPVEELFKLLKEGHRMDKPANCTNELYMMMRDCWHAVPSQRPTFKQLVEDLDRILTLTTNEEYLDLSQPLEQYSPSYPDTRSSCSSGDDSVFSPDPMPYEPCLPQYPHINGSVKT", "assay": "In vitro kinase assay FGFR2", "type": "biochemical", "conditions": "concentrations up to 50 μM", "method": "as §3"}, "Met": {"molecular_target": "Met (Homo sapiens, UniProt P08581)", "sequence (P08581 25-1390)": "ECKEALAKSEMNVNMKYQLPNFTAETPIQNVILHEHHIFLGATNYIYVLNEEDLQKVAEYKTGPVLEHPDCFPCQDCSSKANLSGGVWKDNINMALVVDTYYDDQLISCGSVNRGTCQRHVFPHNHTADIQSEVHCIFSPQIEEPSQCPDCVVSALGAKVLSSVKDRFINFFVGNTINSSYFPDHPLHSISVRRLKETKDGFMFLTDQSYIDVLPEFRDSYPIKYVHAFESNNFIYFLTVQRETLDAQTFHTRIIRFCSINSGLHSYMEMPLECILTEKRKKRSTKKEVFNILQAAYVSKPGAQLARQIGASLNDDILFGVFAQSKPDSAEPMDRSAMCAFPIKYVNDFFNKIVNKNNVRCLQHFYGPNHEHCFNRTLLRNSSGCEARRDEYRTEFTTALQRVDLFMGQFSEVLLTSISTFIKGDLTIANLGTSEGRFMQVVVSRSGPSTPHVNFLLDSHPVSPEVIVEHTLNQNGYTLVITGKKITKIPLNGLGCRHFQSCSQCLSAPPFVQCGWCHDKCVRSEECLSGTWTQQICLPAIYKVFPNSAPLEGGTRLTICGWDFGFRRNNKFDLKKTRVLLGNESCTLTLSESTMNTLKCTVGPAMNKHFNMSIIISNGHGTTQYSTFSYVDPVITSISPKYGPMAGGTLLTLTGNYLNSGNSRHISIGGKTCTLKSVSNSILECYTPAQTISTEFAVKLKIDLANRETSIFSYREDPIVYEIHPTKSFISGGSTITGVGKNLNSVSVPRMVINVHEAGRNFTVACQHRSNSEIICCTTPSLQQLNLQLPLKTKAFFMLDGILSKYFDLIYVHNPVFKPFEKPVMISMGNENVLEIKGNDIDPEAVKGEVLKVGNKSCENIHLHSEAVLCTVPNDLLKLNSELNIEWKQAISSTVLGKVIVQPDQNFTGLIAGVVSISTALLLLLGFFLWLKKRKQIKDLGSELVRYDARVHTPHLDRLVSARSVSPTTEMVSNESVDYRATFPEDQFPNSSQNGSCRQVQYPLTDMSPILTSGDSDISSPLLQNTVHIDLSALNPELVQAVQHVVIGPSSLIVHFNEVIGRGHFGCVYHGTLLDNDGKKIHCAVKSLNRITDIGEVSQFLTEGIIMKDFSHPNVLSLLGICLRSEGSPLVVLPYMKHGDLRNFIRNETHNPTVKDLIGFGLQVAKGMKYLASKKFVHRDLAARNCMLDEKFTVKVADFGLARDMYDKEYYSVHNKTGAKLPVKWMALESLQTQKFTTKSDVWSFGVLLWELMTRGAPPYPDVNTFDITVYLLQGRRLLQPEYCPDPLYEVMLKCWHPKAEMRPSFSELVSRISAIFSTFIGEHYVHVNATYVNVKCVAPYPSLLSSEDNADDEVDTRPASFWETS", "assay": "In vitro kinase assay Met", "type": "biochemical", "conditions": "concentrations up to 50 μM", "method": "as §3"}, "Raf": {"molecular_target": "Raf", "assay": "In vitro kinase assay Raf", "type": "biochemical", "conditions": "concentrations up to 50 μM", "method": "as §3"}, "PKCβI": {"molecular_target": "PKCβI (Homo sapiens, UniProt P05771)", "sequence (P05771 whole entry)": "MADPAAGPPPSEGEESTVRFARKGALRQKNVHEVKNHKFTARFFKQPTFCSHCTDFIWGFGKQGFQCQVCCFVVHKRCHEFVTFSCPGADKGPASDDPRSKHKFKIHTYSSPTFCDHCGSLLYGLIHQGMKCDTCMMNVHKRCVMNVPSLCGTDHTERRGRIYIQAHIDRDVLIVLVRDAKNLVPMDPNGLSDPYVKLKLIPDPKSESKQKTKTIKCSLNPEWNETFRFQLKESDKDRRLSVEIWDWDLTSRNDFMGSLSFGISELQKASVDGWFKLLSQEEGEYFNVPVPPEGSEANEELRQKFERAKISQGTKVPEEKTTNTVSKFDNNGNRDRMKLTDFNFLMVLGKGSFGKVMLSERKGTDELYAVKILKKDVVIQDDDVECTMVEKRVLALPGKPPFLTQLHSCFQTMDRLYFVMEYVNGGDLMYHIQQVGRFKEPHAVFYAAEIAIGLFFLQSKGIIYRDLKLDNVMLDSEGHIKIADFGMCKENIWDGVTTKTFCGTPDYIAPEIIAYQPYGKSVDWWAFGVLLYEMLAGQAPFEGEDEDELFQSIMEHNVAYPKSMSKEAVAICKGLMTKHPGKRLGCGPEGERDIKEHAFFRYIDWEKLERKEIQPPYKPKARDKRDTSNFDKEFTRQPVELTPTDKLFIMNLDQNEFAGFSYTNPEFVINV", "assay": "In vitro kinase assay PKCβI", "type": "biochemical", "conditions": "concentrations up to 50 μM", "method": "as §3"}, "[4]": {"tested_on": "p38 MAP kinase phosphorylation", "assay": "p38 MAP kinase phosphorylation in HUVEC", "type": "cell-based, human", "conditions": "data not shown"}, "PLCγ phosphorylation": {"tested_on": "PLCγ phosphorylation", "assay": "Western blot, PLCγ phosphorylation in HUVEC", "type": "cell-based, human", "conditions": "10 ng/mL VEGF-A 15 min, 25 μM COB223", "method": "Figure 11 Effect of COB223 on mitogenic or oncogenic activation of the Ras /MEK/ERK signaling pathway (A) Serum-starved HUVEC cells were incubated for 15 min in the presence of 10 ng/mL VEGF-A and in the absence or the presence of 25 μM COB223. The phosphorylations of PLCγ on tyrosine 783, of Raf on serine 338 or on serine 259 and of ERK1/2 were then analyzed by Western blot analysis of the cell lysates as described in Material and Methods. Western blots for total PLCγ, Raf and ERK1/2 were used as loading controls. (B) MCF10A cells overexpressing an oncogenic version of Ras (MCF10A-RasG12V) were treated for the indicated periods of time by 25 μM COB223. Total ERK1/2 and phospho-ERK1/2 were then visualized by Western blotting of the cell extracts. Non-treated regular MCF10A cells were analyzed as a control (first lane). (C) CCL-39 fibroblasts expressing a constitutively active Raf in an estrogen-responsive manner were stimulated for 3 h with estradiol and treated for 15 or 30 min with 25 μM COB223. Total ERK1/2 and phospho-ERK1/2 were then visualized by Western blotting of the cell extracts. Non-treated cells were analyzed as a control (left lanes).\nSerum-starved HUVEC cells were incubated for 15 min in the presence of either 10 ng/mL VEGF-A or 20 ng/mL FGF-2 and in the absence or the presence of indicated concentration of COB223. COB223 was incubated 15 min prior to stimulation. […]"}, "[5]": {"conditions": "non-necrotic part of treated tumors"}}, "data": [{"molecule": "CN(C)c1cccc2c(S(=O)(=O)NCCCN3CCN(CCCNC(=O)OC(C)(C)C)CC3)cccc12", "note": "[COB223, tert-Butyl 3-(4-(3-(5-(dimethylamino)naphthalene-1-sulfonamido)propyl)piperazin-1-yl) propylcarbamate]", "values": [{"measurement": "concentrations inhibiting thymidine incorporation", "setting": "HUVEC cells [1]", "value": "above 5 μM"}, {"measurement": "effect on cell proliferation", "setting": "LLC/2 cells", "value": "inhibited"}, {"measurement": "cytotoxic concentrations", "setting": "HMVECd cells", "value": "> 50", "unit": "µM"}, {"measurement": "cytotoxic concentrations", "setting": "HUVEC cells [2]", "value": "> 50", "unit": "µM"}, {"measurement": "tumors with necrotic areas larger than 15% of their surface", "setting": "LLC/2 tumor; COB223-treated tumors (untreated 20%)", "value": 60, "unit": "%"}, {"measurement": "density of the microvessels (CD31)", "setting": "LLC/2 tumor; [5]", "value": "significant decrease"}, {"measurement": "size (luminal surface) of the microvessels (CD31)", "setting": "LLC/2 tumor; [5]", "value": "significant decrease"}, {"measurement": "number of phospho-ERK1/2 and phospho-histone H3 positive cells", "setting": "LLC/2 tumor; tumor sections", "value": "significantly decreased"}, {"measurement": "binding of 125I-VEGF-A121 to HUVEC cells", "setting": "HUVEC cells [3]", "value": "unaffected"}, {"measurement": "kinase inhibition", "setting": "FGFR1", "value": "None of them was inhibited"}, {"measurement": "kinase inhibition", "setting": "FGFR2", "value": "None of them was inhibited"}, {"measurement": "kinase inhibition", "setting": "Met", "value": "None of them was inhibited"}, {"measurement": "kinase inhibition", "setting": "Raf", "value": "None of them was inhibited"}, {"measurement": "kinase inhibition", "setting": "PKCβI", "value": "None of them was inhibited"}, {"measurement": "activation of p38 MAP kinase phosphorylation by VEGF or serum", "setting": "[4]", "value": "unaffected"}, {"measurement": "VEGF-induced tyrosine phosphorylation of PLCγ on residue Y783", "setting": "PLCγ phosphorylation", "value": "unaffected"}]}]}
